Results: patent publication US12152030B2 (NOVOSTAR PHARMACEUTICALS, LTD., priority 2019, dated 2024)
Counter-ions that a name gives are not always drawn.

Experiments:
Type in all cases: binding
[1] = biological target: MNK1 (Homo sapiens, UniProt Q9BUB5); experiment: KinomeScan, MNK1
Text: (§1) KinomeScan was used to determine the kinase selectivity of compound 2.

[2] = biological target: T1, STK17A/DRAK1 (Homo sapiens, UniProt Q9UEE5); experiment: KinomeScan, DRAK1
T1 sequence (Q9UEE5 1-414): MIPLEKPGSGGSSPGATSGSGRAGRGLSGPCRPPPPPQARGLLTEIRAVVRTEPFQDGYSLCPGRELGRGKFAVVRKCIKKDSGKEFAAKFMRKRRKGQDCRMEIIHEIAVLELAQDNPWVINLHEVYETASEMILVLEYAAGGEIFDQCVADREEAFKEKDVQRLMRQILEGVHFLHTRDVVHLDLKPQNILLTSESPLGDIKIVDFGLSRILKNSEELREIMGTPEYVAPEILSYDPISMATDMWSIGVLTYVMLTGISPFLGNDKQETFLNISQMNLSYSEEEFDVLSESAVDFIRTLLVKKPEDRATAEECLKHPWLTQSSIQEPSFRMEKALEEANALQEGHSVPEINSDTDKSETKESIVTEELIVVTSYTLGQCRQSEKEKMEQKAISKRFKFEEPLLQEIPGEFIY
Text: as §1

[3] = biological target: T2, GAK (Homo sapiens, UniProt O14976); experiment: KinomeScan, GAK
T2 sequence (O14976 1-1311): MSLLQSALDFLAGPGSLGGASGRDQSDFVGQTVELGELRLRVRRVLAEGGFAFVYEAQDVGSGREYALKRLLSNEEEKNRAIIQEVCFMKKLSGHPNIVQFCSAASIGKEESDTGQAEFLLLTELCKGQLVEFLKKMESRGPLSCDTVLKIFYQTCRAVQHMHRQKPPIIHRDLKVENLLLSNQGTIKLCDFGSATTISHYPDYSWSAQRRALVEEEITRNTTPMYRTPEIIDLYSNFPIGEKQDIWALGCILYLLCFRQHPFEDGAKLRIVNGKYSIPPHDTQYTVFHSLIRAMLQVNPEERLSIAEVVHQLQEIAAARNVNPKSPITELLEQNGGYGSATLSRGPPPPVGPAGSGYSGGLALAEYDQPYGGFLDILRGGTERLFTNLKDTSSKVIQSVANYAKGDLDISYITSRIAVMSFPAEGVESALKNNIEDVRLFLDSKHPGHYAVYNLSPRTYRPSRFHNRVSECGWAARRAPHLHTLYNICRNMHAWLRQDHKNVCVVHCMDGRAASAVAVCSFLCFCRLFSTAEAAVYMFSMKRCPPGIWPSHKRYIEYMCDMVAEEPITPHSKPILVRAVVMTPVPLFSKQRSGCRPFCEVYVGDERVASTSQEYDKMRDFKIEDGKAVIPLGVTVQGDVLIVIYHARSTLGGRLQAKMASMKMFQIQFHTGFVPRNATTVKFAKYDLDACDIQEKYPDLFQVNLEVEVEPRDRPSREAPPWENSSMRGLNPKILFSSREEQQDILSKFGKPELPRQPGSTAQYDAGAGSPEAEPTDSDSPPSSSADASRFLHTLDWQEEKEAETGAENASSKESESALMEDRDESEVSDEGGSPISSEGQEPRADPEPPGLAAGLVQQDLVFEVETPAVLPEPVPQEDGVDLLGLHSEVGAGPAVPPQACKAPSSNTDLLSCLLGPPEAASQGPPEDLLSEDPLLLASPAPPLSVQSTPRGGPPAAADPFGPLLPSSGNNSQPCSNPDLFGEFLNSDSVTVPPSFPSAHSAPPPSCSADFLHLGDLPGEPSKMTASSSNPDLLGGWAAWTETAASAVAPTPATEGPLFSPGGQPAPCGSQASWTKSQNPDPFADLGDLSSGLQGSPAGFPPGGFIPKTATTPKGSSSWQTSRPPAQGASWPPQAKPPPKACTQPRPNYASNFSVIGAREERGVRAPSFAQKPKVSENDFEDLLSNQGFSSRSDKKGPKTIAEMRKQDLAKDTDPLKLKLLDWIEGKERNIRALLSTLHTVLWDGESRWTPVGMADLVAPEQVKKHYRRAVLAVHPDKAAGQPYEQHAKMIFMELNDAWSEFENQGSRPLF
Text: as §1

Chain of MNK1 (Q9BUB5 whole entry): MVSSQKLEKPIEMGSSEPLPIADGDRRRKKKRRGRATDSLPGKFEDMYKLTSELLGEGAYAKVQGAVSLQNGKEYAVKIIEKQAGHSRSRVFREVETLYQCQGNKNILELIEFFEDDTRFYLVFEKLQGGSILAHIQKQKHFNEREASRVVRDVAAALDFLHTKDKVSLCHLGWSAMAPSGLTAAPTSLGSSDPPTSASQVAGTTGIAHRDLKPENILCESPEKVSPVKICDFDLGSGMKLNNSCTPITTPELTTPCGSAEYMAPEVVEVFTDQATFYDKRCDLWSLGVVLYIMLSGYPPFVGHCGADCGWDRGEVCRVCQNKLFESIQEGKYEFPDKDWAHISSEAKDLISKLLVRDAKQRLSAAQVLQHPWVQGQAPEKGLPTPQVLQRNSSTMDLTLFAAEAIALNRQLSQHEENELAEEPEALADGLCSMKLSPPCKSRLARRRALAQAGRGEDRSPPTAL

Cc1c2c(c(=O)n3c1C(=O)NC31CCCCC1)Nc1cc(N)ncc1C2 [Compound 2, 8′-amino-12′-methyl-6′,11′-dihydro-2′H-spiro[cyclohexane-1,3′-imidazole[1′,5′:1,6]pyrido[3,4-B][1,6]naphthyridine]-1′,5′-dione hydrochloride]
inhibition at 1 µM [1]: 97.2%
inhibition at 1 µM [2]: 62%
Kd ([2]; dose response analysis, read-out: Kd of interaction with DRAK1): 370 nM
inhibition at 1 µM [3]: 97.8%
Kd ([3]; dose response analysis, read-out: Kd of interaction with GAK): 50 nM
